Holding throughout (assay): biochemical
Common to all, as to format: binding

In assay [1] the target is HLA-DR DRB1*0101 (DR1) (Homo sapiens, UniProt P01903+P01911, A100R/D57E/F55L/F60I/F76Y/I96L/L162R/M171V/P40L/Q125E/R42F/V115G/Y59C).
The target of assay [2] is HLA-DR DRB1*0301 (DR3) (Homo sapiens, UniProt P01903+P01911, A100K/A102G/A103R/A169T/F55Y/I96L/K41T/L162R/M171V/P40S/Q125H/Q178H/Q39Y/R42S/S66N/T106N/T262R/W38E/Y61H).
Assay [3] addresses HLA-DR DRB1*0701 (DR7) (Homo sapiens, UniProt P01903+P01911, A100R/A102G/A103Q/D57E/D86V/E43K/F76Y/K127E/L162R/M171V/P40G/Q125H/Q99D/R33Q/R42Y/R54Q/S133A/S66F/T210M/V115G/Y107V/Y59L/Y89S).
The target in assay [4] is HLA-DR DRB1*0901 (DR9) (Homo sapiens, UniProt P01903+P01911, A100R/A103E/D57H/D86V/F55Y/F60I/F76Y/I96F/K127E/L162R/M171V/P40D/Q125H/Q99R/R33Q/R42F/S133A/S66N/T210M/V115G/W38K/Y107V/Y59G/Y89S).
Assay [5] deals with HLA-DR DRB1*1101 (DR11) (Homo sapiens, UniProt P01903+P01911, A100R/A169T/A87E/I96F/K41T/L162R/M171V/P40S/Q125H/Q178H/Q39Y/Q99D/R42S/S66Y/T262R/V115G/W38E). To be noted: DRB1 *1101.
Assay [6] deals with HLA-DR DRB1*1302 (DR13) (Homo sapiens, UniProt P01903+P01911, A100E/A169T/K41T/L162R/M171V/P40S/Q125H/Q178H/Q39Y/Q99D/R42S/S66N/T262R/V115G/W38E/Y61H). To be noted: DRBI *1302.
For assay [7], the target named is HLA-DR DRB4*0101 (DR53) (Homo sapiens, UniProt P01903+P13762, G164S). To be noted: DRB4 *0101.
Assay [8] concerns the target HLA-DR DRB5*0101 (DR51) (Homo sapiens, UniProt P01903+Q30154). As to conditions: DRB5 *0101.
In assay [9] the target is HLA-DR DRB1*0401 (DR4) (Homo sapiens, UniProt P01903+P01911, A100K/A169T/F76Y/I96L/K127E/L162R/M171V/N62H/P40V/Q125Y/R42H/S133A/S149N/S66Y/V115G/V209L/W38E).
The target in assay [10] is HLA-DR DRB1*0802 (DR8) (Homo sapiens, UniProt P01903+P01911, A100R/A103L/A169T/F76Y/H45Y/I96F/K41T/L162R/M171V/P40S/Q125H/Q178H/Q39Y/Q99D/R218S/R42G/S66Y/V115G/W38E).
Assay [11] has as its target HLA-DR DRB1*1501 (DR15) (Homo sapiens, UniProt P01903+P01911). As to conditions: DRBI *1501.

Like-named read-outs stand apart in the source and are kept apart here. No end group written: not given here.

HLA-DR DRB1*1101 (DR11), sequence (P01903 26-254 limits assumed, other chains not shown): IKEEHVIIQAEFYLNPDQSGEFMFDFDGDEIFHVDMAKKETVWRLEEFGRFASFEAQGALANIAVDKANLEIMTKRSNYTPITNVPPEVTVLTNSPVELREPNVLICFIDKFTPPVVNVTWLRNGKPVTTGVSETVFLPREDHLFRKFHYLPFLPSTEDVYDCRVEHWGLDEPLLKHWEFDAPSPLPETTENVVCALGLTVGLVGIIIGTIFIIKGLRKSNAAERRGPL
HLA-DR DRB1*1302 (DR13), sequence (P01903 26-254 limits assumed, other chains not shown): as above
HLA-DR DRB1*0301 (DR3), sequence (P01903 26-254 limits assumed, other chains not shown): as above

For the compound VQQLLMGALTVTCPL, the IC50 in assay [1] (DRB1 *0101) came to 10 nM; in assay [2] it was 34300 nM; in [3] (DRB1 *0701), 71 nM; in assay [4] (DRB1 *0901) it was 180 nM; in assay [5], 11100 nM; in assay [6], 574 nM. For the same compound, the IC50 in [7] was found to be 204 nM; in assay [8] it was 7150 nM.

Consider NVNLQKQLLTNHLIN [NVNLQKQLLTNHLIN], for which the IC50 in assay [1] (DRB1 *0101) came to 96 nM; in assay [9] (DRB1 *0401) it was 2460 nM; in assay [3] (DRB1 *0701) it was 555 nM; in assay [10], 11200 nM; in assay [11], 4450 nM; in [7], 354 nM. The same compound registered an IC50 in assay [8] of over 7210 nM.

For LCNFKKNIIALLIIP, the IC50 in assay [1] (read-out: DRB1 *0101) stood at 9.7 nM; in [9] (read-out: DRB1 *0401), 312 nM; in [10] (read-out: DRB1 *0802), 21300 nM.

As to SKIMKLPKLPISNGK, the IC50 in assay [1] (DRB1 *0101) came out at 824 nM; in assay [9] (DRB1 *0401) it was 6480 nM; in [3] (DRB1 *0701) it was 83700 nM; in [10] it was 110 nM.

With NYELSKKAVIFTPIY, the IC50 turned out to be 713 nM in assay [1] (DRB1 *0101), 536 nM in [9] (DRB1 *0401), 5500 nM in assay [3] (DRB1 *0701) and 141 nM in assay [10].

For the compound LYYLFNQHIKKELYH, the IC50 in assay [1] (DRB1 *0101) stood at 27 nM; in [3] (DRB1 *0701) it was 10200 nM; in assay [10], 1770 nM; in assay [6], 327 nM; in assay [7] it was 1090 nM.

For the compound KEYVLDLYPEPTDLY, the IC50 in assay [1] (DRB1 *0101) is 5950 nM; in assay [9] (DRB1 *0401) it was 131 nM; in assay [3] (DRB1 *0701), over 72300 nM; in [4] (DRB1 *0901) it was over 49900 nM; in [5], over 59200 nM; in assay [6], over 14800 nM. Besides, the IC50 was 3170 nM in [11] and over 55100 nM in [8].

With FPTIPLSRLFDNAM, the IC50 in assay [1] (read-out: DRB1 *0101) was found to be 6920 nM; in assay [2] (read-out: DRB1 *0301) it was 46700 nM; in assay [9] (read-out: DRB1 *0401) it was 9460 nM; in [3] (read-out: DRB1 *0701), 5530 nM; in [4] (read-out: DRB1 *0901) it was 15000 nM.

As for YGIIVPVLTSLFNKV, the IC50 came to 6 nM in assay [1] (read-out: DRB1 *0101), 2 nM in [9] (read-out: DRB1 *0401), 60 nM in assay [3] (read-out: DRB1 *0701) and 793 nM in assay [10] (read-out: DRB1 *0802).

Turning to GVIYIMIISKKMMRK, the IC50 in [1] (DRB1 *0101) came out at 10 nM; in assay [9] (DRB1 *0401) it was 22 nM; in [10], 137 nM; in assay [11], 173 nM; in assay [7], 157 nM; in assay [8], 46 nM.

Turning to `CC[C@H](C)[C@H](NC(=O)[C@H](CC(C)C)NC(=O)[C@H](CCCCN)NC(=O)[C@H](CCCCN)NC(=O)[C@@H](N)Cc1ccc(O)cc1)C(=O)N[C@@H](CCSC)C(=O)N[C@@H](Cc1ccc(O)cc1)C(=O)N[C@@H](CO)C(=O)N[C@@H](C)C(=O)N[C@@H](Cc1c[nH]cn1)C(=O)N[C@@H](CC(=O)O)C(=O)N[C@H](C(=O)N[C@H](C(=O)N[C@H](C(=O)N[C@@H](CO)C(=O)O)C(C)C)[C@@H](C)O)[C@@H](C)O`, the IC50 in assay [1] (DRB1 *0101) turned out to be 17 nM; in assay [2] it was 22700 nM; in assay [4] (DRB1 *0901) it was 107 nM; in assay [5] it was 208 nM; in assay [6], 37 nM; in assay [11] it was 15 nM. Also, the IC50 is 5.8 nM in assay [7] and 5480 nM in [8].

On to SVTWIGAAPLILSPI, for which the IC50 in [1] (read-out: DRB1 *0101) is 4.1 nM; in [2] (read-out: DRB1 *0301) it was over 81800 nM; in assay [9] (read-out: DRB1 *0401), 3150 nM; in assay [3] (read-out: DRB1 *0701) it was 83 nM; in assay [4] (read-out: DRB1 *0901) it was 30 nM.

Take GYKVLVLNPSV: the IC50 worked out at 16 nM in [1] (read-out: DRB1 *0101), 72400 nM in assay [2] (read-out: DRB1 *0301), 27 nM in assay [9] (read-out: DRB1 *0401) and 8790 nM in assay [4] (read-out: DRB1 *0901).

For MIMIKFMGVIYIMII, the IC50 in assay [1] (DRB1 *0101) turned out to be 2900 nM; in assay [9] (DRB1 *0401), 312 nM; in [3] (DRB1 *0701), 68000 nM; in assay [10] it was 66100 nM.

On to KCLVISQVSNSDSYK, for which the IC50 was determined as 628 nM in assay [1] (DRB1 *0101); 16 nM in [9] (DRB1 *0401); 46400 nM in [3] (DRB1 *0701); 17900 nM in assay [10]; 236 nM in assay [6]; 81 nM in [7]. The compound further showed an IC50 in assay [8] of over 42600 nM.

The values are drawn from patent US20060079453A1, “Hla binding peptides and their uses” (priority 2002, published 2006).
